What was measured:
[1] = biological target: T1, E2F1 (Homo sapiens, UniProt Q01094); experiment: In vitro E2F1 DNA-binding activity assay, EMSA with DHFR promoter probe; conditions: cell lysates pre-incubated with compound before DHFR promoter probe
T1 construct: made in house; host or cells: Sf-9 insect cells infected with baculovirus
Method: (§1) FIGS. 1A-1E. Inhibition of in vitro Stat3 DNA-binding activity by a platinum complex. Nuclear extracts or cell lysates containing activated Stat1, Stat3 and Stat5, or E2F1 prepared from NIH3T3/hEGFR that are stimulated with EGF or Sf-9 insect cells that are infected with baculovirus expressing Stat1, Stat3, Stat5, or E2F1, respectively, were treated with or without the indicated concentrations of platinum complex, PLATINUM-401 or Cisplatin, for 30 min at room temperature prior to incubation with radiolabeled oligonucleotide probes, and subjected to EMSA analysis. (FIG. 1A) (i) Stat1 and Stat3 binding activities to hSIE probe, (ii) Stat1 and Stat5 binding activities to MGFe probe, and (iii) plot of % oligonucleotide probe-STAT:STAT complexes versus concentration of PLATINUM-401. […] Positions of STAT: STAT-DNA complexes in gel are labeled. In (A) to (C), the control lanes represent DMSO (vehicle)-treatment.
In control studies, the effect of PLATINUM-401 was evaluated on the DNA-binding activity of the E2F1 protein that is unrelated to STATs.

[2] = biological target: T2, Stat1 (Mus musculus, UniProt P42225); experiment: In vitro Stat1 DNA-binding activity assay, EMSA with hSIE or MGFe probe
T2 construct: Nuclear extract preparation from NIH3T3 stimulated by rhIL-6, NIH3T3/hEGFR stimulated by rhEGF; endogenous in cells; host or cells: NIH3T3/hEGFR fibroblasts stimulated with rhEGF (nuclear extract)
T2 sequence (P42225 2-749 limits assumed): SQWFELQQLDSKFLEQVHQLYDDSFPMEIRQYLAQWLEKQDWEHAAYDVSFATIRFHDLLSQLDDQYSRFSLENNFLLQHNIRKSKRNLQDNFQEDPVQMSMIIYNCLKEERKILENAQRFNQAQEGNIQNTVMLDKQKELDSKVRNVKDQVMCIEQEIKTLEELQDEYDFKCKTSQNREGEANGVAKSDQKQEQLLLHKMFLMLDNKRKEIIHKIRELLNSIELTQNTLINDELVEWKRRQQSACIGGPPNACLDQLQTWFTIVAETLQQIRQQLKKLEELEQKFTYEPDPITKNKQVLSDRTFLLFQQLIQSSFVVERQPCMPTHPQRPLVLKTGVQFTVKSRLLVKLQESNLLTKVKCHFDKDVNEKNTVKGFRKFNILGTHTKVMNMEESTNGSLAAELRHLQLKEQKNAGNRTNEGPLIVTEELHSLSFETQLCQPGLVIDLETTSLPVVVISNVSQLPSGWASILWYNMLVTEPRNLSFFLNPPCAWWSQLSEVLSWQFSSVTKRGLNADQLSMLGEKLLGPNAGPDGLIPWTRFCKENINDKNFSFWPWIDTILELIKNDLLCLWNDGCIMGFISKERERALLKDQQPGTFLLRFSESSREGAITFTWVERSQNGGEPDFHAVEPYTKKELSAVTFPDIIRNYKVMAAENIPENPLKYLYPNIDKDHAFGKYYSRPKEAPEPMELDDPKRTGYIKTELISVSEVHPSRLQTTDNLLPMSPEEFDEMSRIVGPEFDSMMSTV
Method: as §1
Nuclear extract preparation and gel shift assays—Nuclear extract preparation from NIH3T3 stimulated by rhIL-6, NIH3T3/hEGFR stimulated by rhEGF, v-Src-transformed fibroblasts (NIH3T3/v-Src) or tumor cell lines and electrophoretic mobility shift assay were carried out as previously described (Turkson et al., 1998; Garcia et al., 1997; Yu et al., 1995). The ^32P-labeled oligonucleotide probes used are hSIE (high affinity sis-inducible element from the c-fos gene, m67 variant, 5′-[…]) (SEQ ID NO:1) that binds Stat1 and Stat3 (Garcia et al., 1997; Wagner et al., 1990) and MGFe (mammary gland factor element from the bovine β-casein gene promoter, 5′-AGATTTCTAGGAATTCAA) (SEQ ID NO:2) for Stat1 and Stat5 binding (49,50). Except where indicated, inhibitor compound was pre-incubated with the nuclear extract for 30 min at room temperature prior to incubation with radiolabeled probe.
Compounds from the NCI 2000 diversity set were screened for inhibition of Stat3 signaling in an in vitro DNA-binding activity assay based on analysis by electrophoretic mobility shift assay (EMSA). […]

T1 sequence (Q01094 whole entry, species assumed): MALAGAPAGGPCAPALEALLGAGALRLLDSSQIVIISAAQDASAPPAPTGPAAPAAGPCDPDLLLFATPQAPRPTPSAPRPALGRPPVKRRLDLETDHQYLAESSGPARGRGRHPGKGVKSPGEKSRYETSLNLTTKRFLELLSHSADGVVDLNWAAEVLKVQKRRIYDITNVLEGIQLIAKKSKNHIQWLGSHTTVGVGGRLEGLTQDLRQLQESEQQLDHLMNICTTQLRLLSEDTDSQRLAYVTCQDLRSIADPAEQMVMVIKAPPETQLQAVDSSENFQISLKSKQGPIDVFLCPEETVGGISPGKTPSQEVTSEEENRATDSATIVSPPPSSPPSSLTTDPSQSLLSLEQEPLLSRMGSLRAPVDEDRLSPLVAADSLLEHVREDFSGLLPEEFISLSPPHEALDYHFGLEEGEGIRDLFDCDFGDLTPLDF

For `CC(O)CN1CCN(CC(C)O)CC1` (stereo not drawn) [PLATINUM-401], the “effect on E2F1 DNA-binding activity” value [1] was “no significant effect”, the IC50 [2] was 4.1 µM and the “effect on DNA-binding activity of Stat1:Stat1 homodimer” value ([2]; pre-incubated 30 min before probe) was “to a lesser extent”.

— US11571418B2, “Platinum compounds that inhibit constitutive STAT3 signaling and induce cell cycle arrest and apoptosis of malignant cells” (H. LEE MOFFITT CANCER CENTER AND RESEARCH INSTITUTE, INC., priority 2011, dated 2023)
